According to patent US20110097426A1, “Methods for Safe and Effective Treatment Using Oxazaphosphorine Drugs” (Accentia Biopharmaceuticals, Inc., priority 2007, published 2011):
Like-named read-outs stand apart in the source and are kept apart here.

Columns and labels:
[1] = system: white blood cell (WBC) count
Procedure: Nine patients were treated 50 mg/kg/day cyclophosphamide intravenously for four days (on Day-3 to Day 0).
On Day 6, (six days after completion of high-dose cyclophosphamide treatment), patients received G-CSF.

[2] = system: patients with aggressive relapsing-remitting multiple sclerosis
Source text: All 9 patients had aggressive relapsing-remitting multiple sclerosis, 8 of whom failed conventional therapy and 1 was untreated. Median age at time of entry was 29 years (range of 20 to 47 years). The mean number of gadolinium enhancing lesions on baseline MRI was 6.5 (range 3-11).

For `O=P1(N(CCCl)CCCl)NCCCO1` (stereo not shown) [cyclophosphamide], which “minimum WBC” value ([1]; patient HiCy01) is on record?
Its value is 70.

What about the “minimum WBC” value ([1]; patient HiCy07) of the same molecule?
Its value is 6.

And the “minimum WBC count” value ([1]; patient HiCy11)?
The value was 24.

And the “minimum WBC” value ([1]; patient HiCy14)?
The value was 31.

What about the “minimum WBC count” value ([1]; patient HiCy19) of the same molecule?
Its value is 50.

What about the WBC count ([1]; patients HiCy05 and HiCy13, within two weeks of treatment) of the same molecule?
Its WBC count is 0.

And the “minimum WBC count” value ([1]; patients HiCy09 and HiCy15 (both))?
The value was 12.

And the “reduction in disability (EDSS)” value ([2]; 50 mg/kg/day i.v. for four days, 9 patients)?
Its value is 50%.

What about the “reduction in gadolinium enhancements” value ([2]; at 6 months, 50 mg/kg/day i.v. for four days, 9 patients) of the same molecule?
Its value is 90%.

What about the “reduction in gadolinium enhancements” value ([2]; by 18 months, 50 mg/kg/day i.v. for four days, 9 patients) of the same molecule?
Its value is 94%.

What about the adverse outcomes ([2]; initial cohort of 9 patients with severe relapsing MS) of the same molecule?
Its adverse outcomes is “no significant adverse outcomes”.

What about the “patients having no disability (EDSS score of 0)” value ([2]; of 9 patients) of the same molecule?
Its value is 3 patients.

What about the “patients with EDSS score of 1” value ([2]; of 9 patients) of the same molecule?
The value was 1 patient.

What about the “patients with an exacerbation during follow-up” value ([2]; of 9 patients, started on conventional MS therapy at 18 months) of the same molecule?
Its value is “one”.

What about the “gadolinium enhancing lesions (GEL) at subsequent follow-up visits” value ([2]; patient HiCy01) of the same molecule?
Its value is “did not have any GEL”.

What about the “gadolinium enhancing lesions (GEL) at follow-up” value ([2]; patients HiCy05 and HiCy13, up to 24 months follow-up) of the same molecule?
The value was “no gadolinium enhancing lesions”.

What about the “gadolinium enhancing lesions (GEL) on follow-up MRIs” value ([2]; patients HiCy07 and HiCy14, who first went to 0 GEL) of the same molecule?
Its value is “a single GEL”.

What about the “gadolinium enhancing lesions (GEL)” value ([2]; patients HiCy09 and HiCy15) of the same molecule?
Its value is 0.

What about the “gadolinium enhancing lesions (GEL) at follow-up” value ([2]; patients HiCy11 and HiCy19 (HiCy19 only 6 months of follow-up)) of the same molecule?
Its value is “always had GEL on every follow up”.
